The values below come from ChEMBL document CHEMBL6078668, “Synthesis and biological evaluation of lappaconitine analogues as potential anti-neuroinflammatory agents by side chain modification and scaffold hopping strategy” (Bioorg Med Chem, 2025).

The structures appear in SMILES notation.

Series [1] in a line: Cytotoxicity against C57BL/6 mouse BV-2 cells assessed as survival rate at 30 uM incubated for 24 hrs by MTT assay relative to control. Type of series: toxicity, cell-based. Particulars: read-out: Survival. In general terms: Formazan colour is commonly taken as a measure of viable cells.
The subject of another series is BV-2. The series can be described thus: Anti-neuroinflammatory activity against LPS-stimulated C57BL/6 mouse BV-2 cells assessed as inhibition of NO release at 30 uM preincubated with compound for 4 hrs followed by LPS addition and measured after 24 hrs by Griess reagent based assay relative to control. Type of series: functional. Particulars: C57BL/6, BV-2, time 28 hrs. Background: Griess reagent forms a coloured azo dye with nitrite.

Consider `CCN1C[C@]2(OC(=O)c3ccccc3NC(=O)c3ccc(Br)cc3)CC[C@H](OC)[C@]34C1[C@@H](C[C@H]23)[C@@]1(O)C[C@H](OC)[C@H]2C[C@@H]4[C@]1(O)[C@H]2OC`, for which the viability at 24 h, 30 µM in series [1] was found to be 102%. Moreover, the inhibition – broadly, the relative decrease from the control value, in per cent – at 30 µM in the series with BV-2 came to 21.3%.
The matching figures for `CCN1C[C@]2(OC(=O)c3ccccc3NC(=O)C(C)C)CC[C@H](OC)[C@]34C1[C@@H](C[C@H]23)[C@@]1(O)C[C@H](OC)[C@H]2C[C@@H]4[C@]1(O)[C@H]2OC`: 105% and 8.9%.
The matching figures for `CCN1C[C@]2(OC(=O)c3ccccc3NC(=O)S(=O)(=O)c3ccc(C(=O)OC)cc3)CC[C@H](OC)[C@]34C1[C@@H](C[C@H]23)[C@@]1(O)C[C@H](OC)[C@H]2C[C@@H]4[C@]1(O)[C@H]2OC`: 104% and 15.7%.
`O=C(Nc1ccccc1C(=O)O)c1ccc(Cl)s1`: the viability at 24 h, 30 µM in series [1] turned out to be 98.7%. In the series with BV-2, the inhibition at 30 µM was determined as 32.4%.
For `CCN1C[C@]2(OC(=O)c3ccccc3NC(=O)C3CCOCC3)CC[C@H](OC)[C@]34C1[C@@H](C[C@H]23)[C@@]1(O)C[C@H](OC)[C@H]2C[C@@H]4[C@]1(O)[C@H]2OC` the same measures were 103% and 36.3%.
In the case of `CCN1C[C@]2(OC(=O)c3ccccc3NC(=O)S(=O)(=O)c3ccc4c(c3)OCC4)CC[C@H](OC)[C@]34C1[C@@H](C[C@H]23)[C@@]1(O)C[C@H](OC)[C@H]2C[C@@H]4[C@]1(O)[C@H]2OC`, the viability at 24 h, 30 µM in series [1] was determined as 96.3%. Also, in the series with BV-2, the inhibition at 30 µM worked out at 9.9%.
For `CCN1C[C@]2(OC(=O)c3ccccc3NC(=O)S(=O)(=O)c3ccc(Br)cc3)CC[C@H](OC)[C@]34C1[C@@H](C[C@H]23)[C@@]1(O)C[C@H](OC)[C@H]2C[C@@H]4[C@]1(O)[C@H]2OC` the same measures were 109% and 40.8%.
The matching figures for `CCCc1ccc(S(=O)(=O)C(=O)Nc2ccccc2C(=O)O[C@@]23CC[C@H](OC)[C@]45C([C@@H](C[C@H]24)[C@@]2(O)C[C@H](OC)[C@H]4C[C@@H]5[C@]2(O)[C@H]4OC)N(CC)C3)cc1`: 92.3% and 43.4%.
For the compound `CCN1C[C@]2(OC(=O)c3ccccc3NC(=O)CCc3ccccc3)CC[C@H](OC)[C@]34C1[C@@H](C[C@H]23)[C@@]1(O)C[C@H](OC)[C@H]2C[C@@H]4[C@]1(O)[C@H]2OC`, the viability at 24 h, 30 µM in series [1] turned out to be 108%. In addition, the inhibition at 30 µM with BV-2 was determined as 16.6%.
For `CCN1C[C@]2(OC(=O)c3ccccc3NC(=O)S(=O)(=O)c3ccc(OC)c(OC)c3)CC[C@H](OC)[C@]34C1[C@@H](C[C@H]23)[C@@]1(O)C[C@H](OC)[C@H]2C[C@@H]4[C@]1(O)[C@H]2OC` the same measures were 105% and 19.4%.
The matching figures for `CCN1C[C@]2(OC(=O)c3ccccc3NC(=O)CC(C)C)CC[C@H](OC)[C@]34C1[C@@H](C[C@H]23)[C@@]1(O)C[C@H](OC)[C@H]2C[C@@H]4[C@]1(O)[C@H]2OC`: 102% and 16.7%.
`CCN1C[C@]2(OC(=O)c3ccccc3NC(=O)S(=O)(=O)c3ccc(OC)c(F)c3)CC[C@H](OC)[C@]34C1[C@@H](C[C@H]23)[C@@]1(O)C[C@H](OC)[C@H]2C[C@@H]4[C@]1(O)[C@H]2OC`: in series [1], the viability at 24 h, 30 µM was found to be 103%. The inhibition at 30 µM in the series on BV-2 was determined as 11.1%.
For `COC(=O)c1ccccc1NS(=O)(=O)c1cccc(F)c1`, in series [1], the viability at 24 h, 30 µM is 106%. Further, the inhibition at 30 µM in the series with BV-2 is 38.5%.
In the case of `CCN1C[C@]2(COC(=O)c3ccccc3NS(=O)(=O)c3cccc(F)c3)CC[C@H](OC)[C@]34C1[C@@H](C[C@H]23)[C@@]1(O)C[C@H](OC)[C@H]2C[C@@H]4[C@]1(O)[C@H]2O`, the viability at 24 h, 30 µM in series [1] came to 106%. The inhibition at 30 µM in the series on BV-2 came out at 17.9%.
